Experimental data: ChEMBL document CHEMBL2346534, “Design, synthesis and in vitro anti-proliferative activity of 4,6-quinazolinediamines as potent EGFR-TK inhibitors” (Eur J Med Chem, 2013)

Each compound was assayed against Epidermal growth factor receptor (Homo sapiens, UniProt P00533). Settings: at 10 µM.
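Note: EGFR tyrosine kinase activity on a poly(Glu,Tyr) substrate, read out by Kinase-Glo Plus luminescence after a 40 min reaction.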
Description: Inhibition of EGFR tyrosine kinase (unknown origin) using poly (Glu,Tyr) as substrate at 10 uM after 40 mins by Kinase-Glo Plus luminescence kinase assay

Epidermal growth factor receptor, sequence (P00533 whole entry): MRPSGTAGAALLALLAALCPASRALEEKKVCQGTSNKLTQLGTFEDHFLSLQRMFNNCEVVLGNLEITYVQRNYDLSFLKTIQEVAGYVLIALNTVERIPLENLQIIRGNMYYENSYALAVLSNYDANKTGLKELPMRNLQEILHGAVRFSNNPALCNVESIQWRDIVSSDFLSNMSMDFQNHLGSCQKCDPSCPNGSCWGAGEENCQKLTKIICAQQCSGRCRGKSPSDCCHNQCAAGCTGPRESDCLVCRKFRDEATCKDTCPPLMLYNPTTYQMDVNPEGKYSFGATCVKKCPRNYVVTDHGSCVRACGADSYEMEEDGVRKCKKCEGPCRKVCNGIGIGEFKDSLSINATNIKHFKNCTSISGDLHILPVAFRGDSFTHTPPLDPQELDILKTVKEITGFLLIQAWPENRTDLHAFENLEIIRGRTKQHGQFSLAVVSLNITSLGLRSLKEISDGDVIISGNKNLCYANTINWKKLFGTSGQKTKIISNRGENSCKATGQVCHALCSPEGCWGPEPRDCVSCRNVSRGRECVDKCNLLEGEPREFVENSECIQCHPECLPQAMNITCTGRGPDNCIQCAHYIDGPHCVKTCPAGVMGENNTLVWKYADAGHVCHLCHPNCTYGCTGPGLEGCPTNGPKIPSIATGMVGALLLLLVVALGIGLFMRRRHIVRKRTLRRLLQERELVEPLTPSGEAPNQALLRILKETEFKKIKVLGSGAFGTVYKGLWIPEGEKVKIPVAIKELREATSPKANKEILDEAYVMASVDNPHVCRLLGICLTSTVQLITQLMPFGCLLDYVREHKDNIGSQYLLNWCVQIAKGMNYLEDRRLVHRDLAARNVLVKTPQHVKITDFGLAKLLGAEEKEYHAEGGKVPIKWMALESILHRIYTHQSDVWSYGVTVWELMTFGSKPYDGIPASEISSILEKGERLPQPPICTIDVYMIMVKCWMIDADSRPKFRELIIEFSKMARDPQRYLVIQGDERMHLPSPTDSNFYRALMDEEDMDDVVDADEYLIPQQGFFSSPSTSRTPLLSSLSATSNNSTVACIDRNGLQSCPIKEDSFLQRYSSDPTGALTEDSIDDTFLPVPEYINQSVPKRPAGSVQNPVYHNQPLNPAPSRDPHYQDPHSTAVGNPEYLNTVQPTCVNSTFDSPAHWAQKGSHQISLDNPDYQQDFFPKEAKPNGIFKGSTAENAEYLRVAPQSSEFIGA

Q: How did the inhibition turn out when `CCOC(=O)C(=CNc1ccc2ncnc(Nc3ccc(Cl)cc3)c2c1)C(=O)OCC` was run?
A: 82%

Q: With `CCOC(=O)C(=CNc1ccc2ncnc(Nc3ccccc3Cl)c2c1)C(=O)OCC` as the compound, how does the inhibition read?
A: 100%

Q: With `C#Cc1cccc(Nc2ncnc3ccc(NC=C(C(=O)OCC)C(=O)OCC)cc23)c1` as the compound, how does the inhibition read?
A: 100%

Q: Which inhibition does the source give for `CCOC(=O)/C(C#N)=C\Nc1ccc2ncnc(Nc3ccccc3CC)c2c1` here?
A: 84%

Q: How did the inhibition turn out when `CCOC(=O)/C(C#N)=C\Nc1ccc2ncnc(Nc3cccc(O)c3)c2c1` was run?
A: 100%

Q: How did the inhibition turn out when `CCOC(=O)C(=CNc1ccc2ncnc(Nc3ccc(O)cc3)c2c1)C(=O)OCC` was run?
A: 100%

Q: With `CCOC(=O)/C(C#N)=C\Nc1ccc2ncnc(Nc3ccc(O)cc3)c2c1` as the compound, how does the inhibition read?
A: 100%

Q: With `CCOC(=O)/C(C#N)=C\Nc1ccc2ncnc(Nc3cccc(Br)c3)c2c1` as the compound, how does the inhibition read?
A: 100%

Q: With `Nc1ccc2ncnc(Nc3ccccc3Cl)c2c1` as the compound, how does the inhibition read?
A: 90%

Q: For `CCOC(=O)C(=CNc1ccc2ncnc(Nc3ccc(Cl)cc3Cl)c2c1)C(=O)OCC`, which inhibition is on record?
A: 90%

Q: With `CCOC(=O)C(=CNc1ccc2ncnc(Nc3cccc(Br)c3)c2c1)C(=O)OCC` as the compound, how does the inhibition read?
A: 100%
